Data on seven compounds can be found in patent US11191754B2, “Inhibitors of nucleotidyl transferases and uses in herpes and hepatitis viral infections therefor” (Saint Louis University, priority 2015, dated 2021).

The subject of one series is HSV-1. In words: Anti-HSV-1 replication assay (virus yield by plaque assay on Vero cells). The format is cell-based, herpes simplex virus 1 (HSV-1). The following applies: for HSV-1 Log10 suppression 5 μM / HSV-1 Log10 suppression 50 μM: Vero cells, moi 0.1, 24 h, relative to DMSO control. The procedure: (§1) Vero cells were maintained in Dulbecco's modified Eagle's medium (DMEM) containing 3% newborn calf serum, 3% bovine growth serum, 2 mM L-glutamine and 100 IU/mL penicillin and 0.1 mg/mL streptomycin (P/S). HSV-1 #6 and HSV-2 #1 are de-identified clinical isolates from the Saint Louis University Hospital. Stocks were prepared after a single passage in cell culture and were titered by standard plaque assay (Knipe and Spang, 1982). Wild-type HSV-2 used in FIG. 3 was laboratory strain 333. […] Virus stocks were grown and titered on Vero cells (Morrison and Knipe, 1996).
(§2) Compounds to be screened were diluted in PBS supplemented to contain 2% newborn calf serum and 1% glutamine, and added in 100 μL volume to confluent cell monolayers in 24-well cluster plates. Immediately thereafter HSV-1 and HSV-2, diluted in the supplemented PBS medium, were added to the wells in 50 μl volume such that the final concentration of compound was 50 μM, 5 μM and 1 μM and the multiplicity of infection was 0.1. The plates were incubated at 37° C. for 1 hour and then virus-containing inoculum was removed and the wells were washed once in PBS. Compound, diluted to 50 μM, 5 μM and 1 μM in DMEM supplemented to contain 2% newborn calf serum and 1% each penicillin/streptomycin, was added at 0.5 mL/well. Plates were incubated at 37° C. an additional 23 hours, and then the plates were visually inspected through a phase contrast microscope for cytopathic effect, and for toxic effect. The entire contents of each well were collected by scraping. Samples were frozen at −80° C., and then subsequently thawed, sonicated, and infectious virus titer was determined by standard plaque assay on Vero cell monolayers. Because the compounds were dissolved at 10 mM in 100% DMSO, equivalent dilutions of DMSO were added to additional wells as a control for effects of the diluent. Each experiment was repeated once. EC50 values were determined as above except that serial dilutions of the compound to be tested were prepared starting at 50 μM. The inhibitory values were calculated by non-linear curve-fitting in GraphPad Prism.

The nature of series [1]: MTT cytotoxicity assay in HepDES19 cells. It is filed as cell-based. As to conditions: human. How it is done: 1.0×10^4 HepDES19 cells per well were seeded in 96-well plates and incubated in DMEM with 10% FBS plus 1% P/S, 1% non-essential amino acids, and 1% glutamine. Compounds were diluted in medium to the indicated concentrations plus 1% DMSO and added to cells 24 hours after plating, with each concentration tested in triplicate. Medium containing the compound was refreshed daily for the next two days. Thiazolyl blue tetrazolium bromide (MTT, Sigma-Aldrich) was added to 0.25 mg/mL, the cultures were incubated for 60 minutes, metabolites were solubilized in acidic isopropanol, and absorbance was read at 570 nm.
Background: Tetrazolium dyes change colour on reduction, which living cells bring about.

For another series, the system named is HBV. In words: HBV replication assay in HepDES19 cells. It is filed as cell-based, hepatitis B virus. Set-up: key to Qualitative HBV replication inhibition assay: **: + DNA suppression <25% and − DNA suppression >60%; *: + DNA suppression <50% of − DNA suppression. As to conditions: for EC50: Hepatitis B virus, HBV replication, HepDES19 cells; for Qualitative HBV replication inhibition assay: plus- vs minus-polarity DNA strand suppression. The procedure:
Inhibition of HBV replication was measured in HepDES19 cells as previously described in Cai, et al. (2014). Cells were seeded into 6-well plates and incubated in DMEM/F12, 10% fetal bovine serum (FBS), 1% penicillin/streptomycin (P/S) with 1 μg/mL tetracycline. Tetracycline was withdrawn after 24 hours. The test compound was applied to duplicate wells 48 hours later in medium containing a final DMSO concentration of 1%, and medium containing the compound was refreshed daily for the following two days. Cells were harvested and non-encapsidated nucleic acids were digested with micrococcal nuclease (New England Biolabs). HBV DNA was purified from capsids using QIAamp Cador Pathogen Mini Kit (Qiagen) with proteinase K incubation overnight at 37° C. TaqMan PCR was performed for 40 cycles at an annealing temperature of 60° C. Primers and probe (IDT Inc.) for the plus-polarity strand were: 5′[…]3′ (SEQ ID NO: 1); 5′[…]3′ (SEQ ID NO: 2); 5′/56-FAM/[…]/ZEN/[…]/3IABkFQ (SEQ ID NO: 3). Primers and probe for the minus-polarity strand were: 5′[…]3′ (SEQ ID NO: 4; 5′[…]3′ (SEQ ID NO: 5); 5′/56-FAM/[…]/ZEN/[…]/3IABkFQ (SEQ ID NO: 6).

Another series concerns HSV-2. Description: Anti-HSV-2 replication assay (virus yield by plaque assay on Vero cells). It is filed as cell-based, herpes simplex virus 2 (HSV-2). The following applies: for HSV-2 Log10 suppression 5 μM / HSV-2 Log10 suppression 50 μM: Vero cells, moi 0.1, 24 h, relative to DMSO control. The procedure: as §1, §2
The nature of series [2]: Mouse liver microsome assay. It is filed as in vitro ADME. As to conditions: for ER: extraction ratio; for ER / Non-P450 turn-over / half-life at 1 μM: mouse liver microsomes; for half-life at 1 μM / CLint scaled at 1 μM: 1 μM compound; for half-life at 1 μM: read-out: t ½; for CLint scaled at 1 μM: mouse. The procedure:
Microsomal incubations are run at a final P450 concentration of 0.25 μM. […] The mixture is prewarmed for 5 min at 37° C. To initiate the reaction a 12 mM stock of NAPDH (1.2 mM, final concentration) is added to the warmed microsomal mixture and aliquots are removed at 0, 5, 10, 20 and 30 min. […] Samples are vortexed and spun down at 3200 rpm for 5 min. The supernant is transferred to 96-deep well plates and run on LC/MS/MS.
(Microsomes from liver hold many membrane-bound enzymes, among them those of drug oxidation.)

Molecules are shown by their SMILES. Where two headings read alike, the source gives them in different places.

What is called CC50 is the concentration at which the toxic effect on the cells reaches its halfway point. The EC50 is the concentration that produces a half-maximal response. As for `O=c1cc(NCc2ccccc2)c2cccnc2n1O` [#151], the “suppression of HSV-1 replication in cell culture” value in the series with HSV-1 (5 μM or less) is on record as “strongly suppressed”. This compound also had a CC50 at 3 days in series [1] of 15 µM. Also, in the series with HBV, the EC50 was determined as 4.7 µM and the “Qualitative HBV replication inhibition assay” value is recorded as “**”. In the series on HSV-2 (5 μM or less), the “suppression of HSV-2 replication in cell culture” value is on record as “strongly suppressed”.
On to `Cc1cc(C2CCCCC2)n(O)c(=O)c1` [#41], for which, in series [2], the ER was found to be 0.16, the Non-P450 turn-over entry is “No” and the half-life at 1 μM is > 2 h. In addition, the CLint scaled at 1 μM in series [2] (microsomes, read-out: CL ‘hep) is 14 mL/min/kg. The CLint scaled at 1 μM in series [2] (microsomes, read-out: CL’int) came out at 17 mL/min/kg.
As for `CC(C)=CCc1ccc(=O)c(O)cc1C(C)C` [#49], the CC50 at 3 days in series [1] is 9 µM.
The compound `NCc1cccc(-c2ccc(Cc3cc(=O)n(O)c4ncccc34)cc2)c1` [Compound 153] showed a CC50 at 3 days in series [1] of 10 µM. In the series with HBV, the concentration for a half-maximal effect (EC50) amounted to 4.1 µM and the “Qualitative HBV replication inhibition assay” value is listed as “**”.
Regarding `C/C(=N\c1ccccc1N)c1c(C)cc(=O)n(O)c1O` [#208], in the series with HSV-1, the “HSV-1 Log10 suppression 5 μM” value is reported as 0.15 log10 and the “HSV-1 Log10 suppression 50 μM” value was found to be 2.63 log10. Moreover, the CC50 at 3 days in series [1] was 15 µM. In the series with HBV, the EC50 is 0.69 µM and the “Qualitative HBV replication inhibition assay” value is given as “**”. Besides, in the series with HSV-2, the “HSV-2 Log10 suppression 5 μM” value was 0.11 log10 and the “HSV-2 Log10 suppression 50 μM” value is listed as 0.26 log10. Also, in series [2], the ER was <0.1, the Non-P450 turn-over entry is on record as “No” and the half-life at 1 μM was > 2 h. Also, the CLint scaled at 1 μM in series [2] (liver microsomes, read-out: CL ‘hep) was determined as 163 mL/min/kg.
With `Cc1ccc(O)c(=O)c(O)c1` [#210], in series [1], half-maximal cytotoxicity (CC50 at 3 days) was put at 71 µM. Also, in the series on HBV, the EC50 is 1.5 µM and the “Qualitative HBV replication inhibition assay” value is reported as “**”.
On to `Cc1cc(COc2ccc(Oc3ccc(Cl)cc3)cc2)n(O)c(=O)c1` [#211], for which, in the series on HSV-1, the “HSV-1 Log10 suppression 5 μM” value was determined as 0.08 log10 and the “HSV-1 Log10 suppression 50 μM” value stood at 1.6 log10. It took 30 µM to reach half-maximal cytotoxicity in series [1] (CC50 at 3 days). Besides, in the series with HBV, the EC50 was 13 µM and the “Qualitative HBV replication inhibition assay” value is “**”. Also, in the series with HSV-2, the “HSV-2 Log10 suppression 5 μM” value was found to be 0.04 log10 and the “HSV-2 Log10 suppression 50 μM” value is 1.81 log10.
